Source: PubChem BioAssay AID2060905 (Molecular Pharmacology Branch, DTP, NCI, 2025)

System: 282377-053-R-J1-PDC complex spheroid viability
Assay: Anticancer human tumor 282377-053-R-J1-PDC patient-derived colon adenocarcinoma cell line growth inhibition [RAS]
Conditions: for IC50: curve of first compound; for viability, T/C: stronger effect = lower value
Procedure, shortened: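 Agents were tested in combination matrices in half-log decrements from a top concentration at or near clinical Cmax (10 microM if undetermined). Targets were multi-cell spheroids of tumour lines plus HUVEC and MSC stromal cells.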
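Note: spheroids exposed to agents for seven days before readout.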
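Throughout, for viability, T/C: luminescence viability as percent of DMSO vehicle control wells.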

In the case of `NC1c2ccccc2OC12CCN(c1cnc3c(N4CCCc5ncccc54)n[nH]c3n1)CC2` (configuration not stated) + C=CC(=O)N1CCN(c2nc(OCC3CCCN3C)nc3c(F)c(-c4nc(N)cc(C)c4C(F)(F)F)c(Cl)cc23)C(C)C1, the IC50 (second compound 0.00316 µM) is reported as over 10 µM, the IC50 (second compound 0.01 µM) is reported as over 10 µM and the IC50 (second compound 0.0316 µM) is reported as over 10 µM. It also gave an IC50 (second compound 0.1 µM) of over 10 µM, an IC50 (second compound 0.316 µM) of over 10 µM and an IC50 (second compound 1 µM) of over 10 µM. For the same compound, the viability, T/C (second compound 0.00316 µM, first compound 0.0316 µM) was 114%, the viability, T/C (second compound 0.00316 µM, first compound 0.1 µM) was 104% and the viability, T/C (second compound 0.00316 µM, first compound 0.316 µM) was 102%. For the same compound, the viability, T/C (second compound 0.00316 µM, first compound 1 µM) was 95%, the viability, T/C (second compound 0.00316 µM, first compound 3.16 µM) was 105% and the viability, T/C (second compound 0.00316 µM, first compound 10 µM) was 79%. The viability, T/C (second compound 0.01 µM, first compound 0.0316 µM) was 89.9%, the viability, T/C (second compound 0.01 µM, first compound 0.1 µM) was 112% and the viability, T/C (second compound 0.01 µM, first compound 0.316 µM) was 99.1%. It also gave a viability, T/C (second compound 0.01 µM, first compound 1 µM) of 118%, a viability, T/C (second compound 0.01 µM, first compound 3.16 µM) of 93.8% and a viability, T/C (second compound 0.01 µM, first compound 10 µM) of 86.5%. It also gave a viability, T/C (second compound 0.0316 µM, first compound 0.0316 µM) of 106%, a viability, T/C (second compound 0.0316 µM, first compound 0.1 µM) of 105% and a viability, T/C (second compound 0.0316 µM, first compound 0.316 µM) of 92.9%. It also gave a viability, T/C (second compound 0.0316 µM, first compound 1 µM) of 92.2%, a viability, T/C (second compound 0.0316 µM, first compound 3.16 µM) of 90.3% and a viability, T/C (second compound 0.0316 µM, first compound 10 µM) of 83.5%. For the same compound, the viability, T/C (second compound 0.1 µM, first compound 0.0316 µM) was 82.1%, the viability, T/C (second compound 0.1 µM, first compound 0.1 µM) was 87.8% and the viability, T/C (second compound 0.1 µM, first compound 0.316 µM) was 84.1%. For the same compound, the viability, T/C (second compound 0.1 µM, first compound 1 µM) was 108%, the viability, T/C (second compound 0.1 µM, first compound 3.16 µM) was 122% and the viability, T/C (second compound 0.1 µM, first compound 10 µM) was 84.2%. It also gave a viability, T/C (second compound 0.316 µM, first compound 0.0316 µM) of 88%, a viability, T/C (second compound 0.316 µM, first compound 0.1 µM) of 98.6% and a viability, T/C (second compound 0.316 µM, first compound 0.316 µM) of 95.8%. For the same compound, the viability, T/C (second compound 0.316 µM, first compound 1 µM) was 96.5%, the viability, T/C (second compound 0.316 µM, first compound 3.16 µM) was 113% and the viability, T/C (second compound 0.316 µM, first compound 10 µM) was 91.1%. For the same compound, the viability, T/C (second compound 1 µM, first compound 0.0316 µM) was 97.5%, the viability, T/C (second compound 1 µM, first compound 0.1 µM) was 106% and the viability, T/C (second compound 1 µM, first compound 0.316 µM) was 103%. For the same compound, the viability, T/C (second compound 1 µM, first compound 1 µM) was 104%, the viability, T/C (second compound 1 µM, first compound 3.16 µM) was 104% and the viability, T/C (second compound 1 µM, first compound 10 µM) was 86.6%.
